# Laboratory results taken from patent US10617693B2, “Methods of treating and/or preventing actinic keratosis” (Athenex, Inc., priority 2017, dated 2020).
# Test system: subjects with AK on the face or scalp
# Test: Phase 2a study KX01-AK-002: local skin reactions (grade 0 not present to 4 worst) and adverse events, 0.5 mg KX-01 on 25 cm^2
# Assay type: in vivo, human
# Text: An ongoing Phase 2a, open-label, multicenter, activity and safety study of KX-01 administered topically in subjects with AK on the face or scalp is described herein. […] Secondary objectives are to assess the activity of KX-01 administered topically during Days 1-57 based on reduction of AK lesion counts from baseline, assess the safety and tolerability and pharmacokinetics, and contrast the dose regimens (5-day treatment with 3-day treatment) in terms of activity and safety in subjects with AK on the face or scalp. This uncontrolled, nonrandomized trial is being conducted at 16 investigational sites in the United States. Enrollment is sequential for 2 cohorts of approximately 80 subjects each. Enrollment is closed for Cohort 1 and ongoing for Cohort 2. The two treatment cohorts are summarized below: • Cohort 1: 0.5 mg KX-01 administered topically to a contiguous treatment area of 25 cm^2 with 4-8 clinically typical AK lesions for 5 consecutive days • Cohort 2: 0.5 mg KX-01 administered topically to a contiguous treatment area of 25 cm^2 with 4-8 clinically typical AK lesions for 3 consecutive days
# 0.5 mg KX-01 is administered topically to an area of 25 cm^2 on the face or scalp by site staff on treatment days. […] AK lesion counts are recorded at baseline, days 8, 15, 29, and 57. […] Standardized photography of treatment area is performed at baseline, day 8 and day 57. Plasma samples are being collected at preplanned time points on days 1 and 5 for Cohort 1, and on days 1 and 3 for Cohort 2.
# Absence or presence of hyperpigmentation, hypopigmentation and scarring are also assessed. Application site reactions not classified as LSRs are reported as AEs. […] LSRs and AEs are reported separately. All LSRs, pigmentation, and scarring in the treatment area will be followed to resolution or stabilization.
# The range of possible composite scores is 0-24.
# The Phase 2a trial described in Example 2a was completed with 84 eligible subjects enrolled in each of two cohorts: one cohort was subjected to the treatment for 5 consecutive days, and the other cohort was subjected to the treatment for 3 consecutive days. The results are described below and in FIG. 5.
smiles,measurement,setting,value
O=C(Cc1ccc(-c2ccc(OCCN3CCOCC3)cc2)cn1)NCc1ccccc1 [KX-01],"Vesiculation/Pustulation grade 0, n/N subjects","Day 3, Cohort 1 (5-day)",67/67
same,"Vesiculation/Pustulation grade 1, n/N subjects","Day 3, Cohort 1 (5-day)",0
same,"Vesiculation/Pustulation grade 2, n/N subjects","Day 3, Cohort 1 (5-day)",0
same,"Vesiculation/Pustulation grade 3, n/N subjects","Day 3, Cohort 1 (5-day)",0
same,"Vesiculation/Pustulation grade 4, n/N subjects","Day 3, Cohort 1 (5-day)",0
same,"Crusting grade 0, n/N subjects","Day 4, Cohort 1 (5-day)",61/67
same,"Crusting grade 1, n/N subjects","Day 4, Cohort 1 (5-day)",4/67
same,"Crusting grade 2, n/N subjects","Day 4, Cohort 1 (5-day)",2/67
same,"Crusting grade 3, n/N subjects","Day 4, Cohort 1 (5-day)",0
same,"Crusting grade 4, n/N subjects","Day 4, Cohort 1 (5-day)",0
same,"Erosion/Ulceration grade 0, n/N subjects","Day 4, Cohort 1 (5-day)",65/67
same,"Erosion/Ulceration grade 1, n/N subjects","Day 4, Cohort 1 (5-day)",2/67
same,"Erosion/Ulceration grade 2, n/N subjects","Day 4, Cohort 1 (5-day)",0
same,"Erosion/Ulceration grade 3, n/N subjects","Day 4, Cohort 1 (5-day)",0
same,"Erosion/Ulceration grade 4, n/N subjects","Day 4, Cohort 1 (5-day)",0
same,"Erythema grade 0, n/N subjects","Day 4, Cohort 1 (5-day)",19/67
same,"Erythema grade 1, n/N subjects","Day 4, Cohort 1 (5-day)",26/67
same,"Erythema grade 2, n/N subjects","Day 4, Cohort 1 (5-day)",17/67
same,"Erythema grade 3, n/N subjects","Day 4, Cohort 1 (5-day)",5/67
same,"Erythema grade 4, n/N subjects","Day 4, Cohort 1 (5-day)",0
same,"Flaking/Scaling grade 0, n/N subjects","Day 4, Cohort 1 (5-day)",43/67
same,"Flaking/Scaling grade 1, n/N subjects","Day 4, Cohort 1 (5-day)",16/67
same,"Flaking/Scaling grade 2, n/N subjects","Day 4, Cohort 1 (5-day)",5/67
same,"Flaking/Scaling grade 3, n/N subjects","Day 4, Cohort 1 (5-day)",3/67
same,"Flaking/Scaling grade 4, n/N subjects","Day 4, Cohort 1 (5-day)",0
same,"Swelling grade 0, n/N subjects","Day 4, Cohort 1 (5-day)",65/67
same,"Swelling grade 1, n/N subjects","Day 4, Cohort 1 (5-day)",2/67
same,"Swelling grade 2, n/N subjects","Day 4, Cohort 1 (5-day)",0
same,"Swelling grade 3, n/N subjects","Day 4, Cohort 1 (5-day)",0
same,"Swelling grade 4, n/N subjects","Day 4, Cohort 1 (5-day)",0
same,"Vesiculation/Pustulation grade 0, n/N subjects","Day 4, Cohort 1 (5-day)",66/67
same,"Vesiculation/Pustulation grade 1, n/N subjects","Day 4, Cohort 1 (5-day)",1/67
same,"Vesiculation/Pustulation grade 2, n/N subjects","Day 4, Cohort 1 (5-day)",0
same,"Vesiculation/Pustulation grade 3, n/N subjects","Day 4, Cohort 1 (5-day)",0
same,"Vesiculation/Pustulation grade 4, n/N subjects","Day 4, Cohort 1 (5-day)",0
same,"Crusting grade 0, n/N subjects","Day 5, Cohort 1 (5-day)",56/67
same,"Crusting grade 1, n/N subjects","Day 5, Cohort 1 (5-day)",9/67
same,"Crusting grade 2, n/N subjects","Day 5, Cohort 1 (5-day)",2/67
same,"Crusting grade 3, n/N subjects","Day 5, Cohort 1 (5-day)",0
same,"Crusting grade 4, n/N subjects","Day 5, Cohort 1 (5-day)",0
same,"Erosion/Ulceration grade 0, n/N subjects","Day 5, Cohort 1 (5-day)",61/67
same,"Erosion/Ulceration grade 1, n/N subjects","Day 5, Cohort 1 (5-day)",6/67
same,"Erosion/Ulceration grade 2, n/N subjects","Day 5, Cohort 1 (5-day)",0
same,"Erosion/Ulceration grade 3, n/N subjects","Day 5, Cohort 1 (5-day)",0
same,"Erosion/Ulceration grade 4, n/N subjects","Day 5, Cohort 1 (5-day)",0
same,"Erythema grade 0, n/N subjects","Day 5, Cohort 1 (5-day)",12/67
same,"Erythema grade 1, n/N subjects","Day 5, Cohort 1 (5-day)",19/67
same,"Erythema grade 2, n/N subjects","Day 5, Cohort 1 (5-day)",27/67
same,"Erythema grade 3, n/N subjects","Day 5, Cohort 1 (5-day)",9/67
same,"Erythema grade 4, n/N subjects","Day 5, Cohort 1 (5-day)",0
same,"Flaking/Scaling grade 0, n/N subjects","Day 5, Cohort 1 (5-day)",35/67
same,"Flaking/Scaling grade 1, n/N subjects","Day 5, Cohort 1 (5-day)",21/67
same,"Flaking/Scaling grade 2, n/N subjects","Day 5, Cohort 1 (5-day)",9/67
same,"Flaking/Scaling grade 3, n/N subjects","Day 5, Cohort 1 (5-day)",2/67
same,"Flaking/Scaling grade 4, n/N subjects","Day 5, Cohort 1 (5-day)",0
same,"Swelling grade 0, n/N subjects","Day 5, Cohort 1 (5-day)",58/67
same,"Swelling grade 1, n/N subjects","Day 5, Cohort 1 (5-day)",7/67
same,"Swelling grade 2, n/N subjects","Day 5, Cohort 1 (5-day)",1/67
same,"Swelling grade 3, n/N subjects","Day 5, Cohort 1 (5-day)",1/67
same,"Swelling grade 4, n/N subjects","Day 5, Cohort 1 (5-day)",0
same,"Vesiculation/Pustulation grade 0, n/N subjects","Day 5, Cohort 1 (5-day)",65/67
same,"Vesiculation/Pustulation grade 1, n/N subjects","Day 5, Cohort 1 (5-day)",2/67
same,"Vesiculation/Pustulation grade 2, n/N subjects","Day 5, Cohort 1 (5-day)",0
same,"Vesiculation/Pustulation grade 3, n/N subjects","Day 5, Cohort 1 (5-day)",0
same,"Vesiculation/Pustulation grade 4, n/N subjects","Day 5, Cohort 1 (5-day)",0
same,"Crusting grade 0, n/N subjects","Day 8, Cohort 1 (5-day)",51/67
same,"Crusting grade 1, n/N subjects","Day 8, Cohort 1 (5-day)",15/67
same,"Crusting grade 2, n/N subjects","Day 8, Cohort 1 (5-day)",1/67
same,"Crusting grade 3, n/N subjects","Day 8, Cohort 1 (5-day)",0
same,"Crusting grade 4, n/N subjects","Day 8, Cohort 1 (5-day)",0
same,"Erosion/Ulceration grade 0, n/N subjects","Day 8, Cohort 1 (5-day)",65/67
same,"Erosion/Ulceration grade 1, n/N subjects","Day 8, Cohort 1 (5-day)",1/67
same,"Erosion/Ulceration grade 2, n/N subjects","Day 8, Cohort 1 (5-day)",1/67
same,"Erosion/Ulceration grade 3, n/N subjects","Day 8, Cohort 1 (5-day)",0
same,"Erosion/Ulceration grade 4, n/N subjects","Day 8, Cohort 1 (5-day)",0
same,"Erythema grade 0, n/N subjects","Day 8, Cohort 1 (5-day)",14/67
same,"Erythema grade 1, n/N subjects","Day 8, Cohort 1 (5-day)",24/67
same,"Erythema grade 2, n/N subjects","Day 8, Cohort 1 (5-day)",25/67
same,"Erythema grade 3, n/N subjects","Day 8, Cohort 1 (5-day)",4/67
same,"Erythema grade 4, n/N subjects","Day 8, Cohort 1 (5-day)",0
same,"Flaking/Scaling grade 0, n/N subjects","Day 8, Cohort 1 (5-day)",26/67
same,"Flaking/Scaling grade 1, n/N subjects","Day 8, Cohort 1 (5-day)",18/67
same,"Flaking/Scaling grade 2, n/N subjects","Day 8, Cohort 1 (5-day)",15/67
same,"Flaking/Scaling grade 3, n/N subjects","Day 8, Cohort 1 (5-day)",8/67
same,"Flaking/Scaling grade 4, n/N subjects","Day 8, Cohort 1 (5-day)",0
same,"Swelling grade 0, n/N subjects","Day 8, Cohort 1 (5-day)",64/67
same,"Swelling grade 1, n/N subjects","Day 8, Cohort 1 (5-day)",3/67
same,"Swelling grade 2, n/N subjects","Day 8, Cohort 1 (5-day)",0
same,"Swelling grade 3, n/N subjects","Day 8, Cohort 1 (5-day)",0
same,"Swelling grade 4, n/N subjects","Day 8, Cohort 1 (5-day)",0
same,"Vesiculation/Pustulation grade 0, n/N subjects","Day 8, Cohort 1 (5-day)",67/67
same,"Vesiculation/Pustulation grade 1, n/N subjects","Day 8, Cohort 1 (5-day)",0
same,"Vesiculation/Pustulation grade 2, n/N subjects","Day 8, Cohort 1 (5-day)",0
